Key:
[1] = test system: caAT1R podocytes; assay: ROS assay in caAT1R expressing podocytes; type: cell-based, mouse; conditions: 30 μM ML204, 30 μM AC1903 or 50 μM NSC23677 for 36 hours
Protocol: (§1) Podocyte culture and viral transduction: Immortalized mouse podocytes were cultured as previously described (10, 11). Podocyte viral transduction was performed using lentivirus as previously described (10, 11). Briefly, lentivirus production was carried out in HEK293T cells at 60% confluence, and viral particles were collected two days after transfection and purified by centrifugation at 1,000 rcf for 5 min. Purified lentivirus was frozen at −80° C. until further use. Podocytes were transduced with lentivirus after 7 days of differentiation, and assays were performed 5 days after viral transduction.
(§2) For experiments in FIG. 4B/C, pCDNA3.1 AT1AR-Δ324 (rat AT1R NM_030985.4) containing HA tag (Plasmid #45635, Addgene) underwent site directed mutagenesis (Agilent) to generate the N111S substitution. For FIG. 4B, differentiated podocytes were transduced with the AT1A-N111S/Δ324 construct in six-well plates. Six days after viral transduction, cells were treated with either vehicle, 30 μM ML204, 30 μM AC1903 or 50 μM NSC23677 for 36 hours. Intracellular production of ROS was measured using a cell-permeable fluorescent dye, 5-(and-6)-chloromethyl-2′,7′-dichlorodihydrofluorescein diacetate, acetyl ester (CM-H2DCFDA, Molecular Probes). Cells were incubated with 5 μM CM-H2DCFDA at 37° C. for 45 min in Hanks' balanced salt solution (HBSS). Cells were then collected, resuspended in HBSS, stained with propidium iodide and the fluorescence intensity was assessed by flow cytometry using MACSQuant Analyzer (Miltenyi Biotec, Bergisch Gladbach, Germany). Living cells, which were PI negative, were selected by FACS gating and the fluorescence of CM-H2DCFDA was recorded on the FL-1 channel (525 nm). For FIG. 4C, differentiated podocytes were transduced with the AT1A-N111S/Δ324 construct in 96 well plates. Six days after transduction, the cells were treated with either vehicle, 30 μM ML204, 30 μM AC1903 or 50 μM NSC23677 for 36 hours. […]

[2] = test system: caAT1R podocytes; assay: Cell viability assay in podocytes expressing caAT1R; type: cell-based, mouse; conditions: 30 μM ML204, 30 μM AC1903 or 50 μM NSC23677 for 36 hours
Protocol: as §1, §2

[3] = biological target: T1, TRPC5 (Homo sapiens, UniProt Q9UL62); assay: Syncropath % inhibition TRPC5; type: cell-based; conditions: read-out: Syncropath % inhibition TRPC5 @3 μM; heading: Syncropath % inhibition TRPC5 @3
T1 construct: expressed in transfected cells; host or cells: HEK293
T1 sequence (Q9UL62 1-973): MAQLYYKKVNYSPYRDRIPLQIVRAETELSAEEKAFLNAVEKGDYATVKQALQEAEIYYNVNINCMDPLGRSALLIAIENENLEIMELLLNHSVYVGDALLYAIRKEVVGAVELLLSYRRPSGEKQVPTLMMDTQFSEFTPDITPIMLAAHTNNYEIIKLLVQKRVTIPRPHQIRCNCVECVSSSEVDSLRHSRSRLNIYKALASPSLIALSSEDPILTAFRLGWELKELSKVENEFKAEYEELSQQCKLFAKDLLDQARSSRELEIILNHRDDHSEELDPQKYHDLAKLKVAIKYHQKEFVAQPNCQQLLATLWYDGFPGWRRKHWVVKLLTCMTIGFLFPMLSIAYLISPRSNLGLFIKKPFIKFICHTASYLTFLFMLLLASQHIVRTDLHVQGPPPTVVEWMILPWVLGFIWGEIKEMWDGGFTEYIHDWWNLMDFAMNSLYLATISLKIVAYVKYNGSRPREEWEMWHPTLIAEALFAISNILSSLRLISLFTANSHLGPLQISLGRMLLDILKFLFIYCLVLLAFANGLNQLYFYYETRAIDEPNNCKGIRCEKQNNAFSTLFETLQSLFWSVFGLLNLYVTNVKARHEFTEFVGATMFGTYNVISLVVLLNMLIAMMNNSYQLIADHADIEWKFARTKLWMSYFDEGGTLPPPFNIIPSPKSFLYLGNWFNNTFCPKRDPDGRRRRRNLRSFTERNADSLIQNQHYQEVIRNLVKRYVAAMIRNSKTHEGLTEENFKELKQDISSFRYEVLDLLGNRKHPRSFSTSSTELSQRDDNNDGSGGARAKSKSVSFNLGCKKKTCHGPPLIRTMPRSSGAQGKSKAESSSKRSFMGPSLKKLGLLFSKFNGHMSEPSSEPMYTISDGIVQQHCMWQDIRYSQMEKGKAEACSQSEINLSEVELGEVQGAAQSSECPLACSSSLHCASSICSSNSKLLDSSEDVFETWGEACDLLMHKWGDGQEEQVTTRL

[4] = test system: podocytes; assay: ROS assay in wild-type podocytes treated with AngII; type: cell-based, mouse; conditions: WT podocytes, AngII 10 μM, 30 μM compound, 3 hours
Protocol: as §1
ROS and cell viability assays: For ROS experiment in FIG. 4A, mature podocytes were cultured as previously described. Cells were incubated with CellRox Deep Red reagent (ThermoFisher) for 30 min at 37° C. Then cells were treated with DMSO, 10 μM angiotensin II, 10 μM angiotensin II with 30 μM AC1903, or 10 μM angiotensin II with 30 μM N-acetyl-L-cysteine (NAC) for 3 hours at 37° C. Cells were washed with PBS twice and fluorescence images were observed using Olympus IX71 microscopy. Fluorescence intensities were then analyzed using ImageJ software.

## CCN(CC)CCSc1c2ccc(Cl)cc2nc2ccc(OC)cc12.Cl [NSC23677]
[1]
  caAT1R-induced ROS generation: blocked caAT1R-induced ROS generation
[2]
  podocyte cell death on caAT1R expression: protected from cell death

## Fc1ccc(Cc2c(NCc3ccco3)nc3ccccn23)cc1 [Compound 5, 3-(4-fluorobenzyl)-N-(furan-2-ylmethyl)imidazo[1,2-a]pyridin-2-amine]
[3]
  inhibition at 3 µM: 88.7%

## CC(=O)N[C@@H](CS)C(=O)O [NAC, N-acetyl-L-cysteine, reference compound]
[4]
  AngII-induced ROS: rescued podocytes from AngII-induced ROS

## c1ccc(Cc2c(N3CCCC3)nc3ccccn23)cc1 [Compound 7, 3-benzyl-2-(pyrrolidin-1-yl)imidazo[1,2-a]pyridine]
[3]
  inhibition at 3 µM: 33.4%
